Laboratory results taken from patent USRE47493E1, “Substituted bicyclic dihydropyrimidinones and their use as inhibitors of neutrophil elastase activity” (Boehringer Ingelheim International GmbH, priority 2014, dated 2019).

Key:
[1] = target: Human neutrophil elastase (Homo sapiens (Human), UniProt P08246); test: Human Neutrophil Elastase Assay; assay type: biochemical; conditions: human neutrophil elastase, substrate MeOSuc-Ala-Ala-Pro-Val-AMC, pH 7.5; read-out: IC50
Method: Human Neutrophil Elastase Assay
Materials: Human neutrophil elastase was purchased from Calbiochem (Cat.No.: 324681) and the elastase substrate MeOSuc-Ala-Ala-Pro-Val-AMC from Bachem (Cat.No.: I-1270). All other materials were of the highest grade commercially available.
The following buffers were used: Compound buffer: 100 mM Tris, 500 mM NaCl, adjusted to pH 7.5; Assay buffer: 100 mM Tris, 500 mM NaCl, adjusted to pH 7.5, containing 0.01% BSA.
Assay conditions: Test compounds were prediluted in DMSO and subsequently in compound buffer (5% DMSO final). 5 μL of these compound dilutions were mixed with 10 μl Neutrophil elastase (9 ng/ml in assay buffer) in a black 384 well OptiPlate (Perkin Elmer, Cat No.: 6007270) and incubated for 15 min at room temperature. Subsequently 10 μL substrate solution in assay buffer were added (250 nM final concentration) and the plates were incubated for 60 min at room temperature. After inactivation of the enzyme, fluorescence intensities were measured at 380 nm excitation and 460 nm emission wavelengths.
Each plate contains wells with a high value control (DMSO+enzyme+substrate) and wells with a low value control (DMSO+inactivated enzyme+substrate). IC50 values were estimated using a sigmoidal concentration response curve with variable slope. Means of low values were taken as 0%, means of high values as 100%.

[2] = target: neutrophil elastase in human plasma (Homo sapiens (Human), UniProt P08246); test: Assay for the Determination of Neutrophil Elastase Inhibitory Activity in Human Plasma; assay type: biochemical; conditions: neutrophil elastase enriched human plasma (zymosan-stimulated blood)
Method: Assay for the Determination of Neutrophil Elastase Inhibitory Activity in Human Plasma
Citrated blood from human healthy donors is mixed with zymosan suspension and incubated at room temperature. This leads to the stimulation of neutrophils and the release of neutrophil elastase into the plasma. The stimulated blood is centrifuged to generate the neutrophil elastase enriched plasma.
Preparation of Zymosan Working Solution:
• single 45 ml blood sample is taken into a 50 ml tube containing citrate (3.13%, 5 mL) and the tube is gently inverted 4 times. • Immediately after blood sampling, zymosan working solution (5 mL) is added. • After the addition of zymosan working solution, the tubes are capped, mixed gently and incubated at 22° C. for 15 min on a shaker at 20 rpm. • Make 10 ml aliquots after the incubation time. • Centrifuge the 15 ml tubes at 800 g for […] at 4° C. in a Jouan centrifuge. • Harvest the plasma and make 1-5 ml aliquots. • Store the plasma at −80° C.
Various concentrations of the neutrophil elastase inhibitor are incubated with plasma. Subsequently, the enzyme activity is measured using the fluorogenic substrate MeOSuc-Ala-Ala-Pro-Val-AMC (Bachem Cat. No. 1-1270, substrate concentration: 250 μM, pH 7.5, 25 mM TRIS buffer, 250 mM NaCl) in analogous fashion as described for the human neutrophil assay. A dose response curve is generated to calculate the EC50 of the inhibitor. The analysis of the data is performed by the calculation of the percentage of fluorescence in the presence of the test compound compared to the fluorescence of the vehicle control after subtracting the background fluorescence: An inhibitor of the neutrophil elastase enzyme will give values between 100% control (no inhibition) and 0% control (complete inhibition). The human plasma shift of selected compounds can be calculated using the following equation: Human plasma shift=(EC50 in human plasma assay)/(IC50 in human neutrophil elastase assay) The EC50 values of selected compounds in the human plasma assay described above are listed in Table 14.

Caco-2 cell monolayers = test: Assay for Determination of Drug Transport Across Human CACO-2 Cells; assay type: in vitro ADME
Source text: Assay for Determination of Drug Transport Across Human CACO-2 Cells
The assay provides information on the potential of a compound to pass the cell membrane, on the extent of oral absorption as well as on whether the compound is actively transported by uptake and/or efflux transporters. For the measurement of permeability across polarized, confluent human cancer colon carcinoma cells 2 (Caco-2) cell monolayers grown on permeable filter supports are used as the in vitro absorption model. Apparent permeability coefficients (PE) of the compounds across the Caco-2 monolayers are measured (pH 7.2, 37° C.) in apical-to-basal (AB) (absorptive) and basal-to-apical (BA) (secretory) transport direction. AB permeability (PEAB) represents drug absorption from the intestine into the blood and BA permeability (PEBA) drug secretion from the blood back into the intestine via both passive permeability as well as active transport mechanisms mediated by efflux and uptake transporters that are expressed on the Caco-2 cells. The compounds are assigned to permeability/absorption classes by comparison of the AB permeabilities with the AB permeabilities of reference compounds with known in vitro permeability and oral absorption in the human. Identical or similar permeabilities in both transport directions indicate passive permeation, vectorial permeability points to additional active transport mechanisms. […] Active transport is concentration-dependently saturable.
Caco-2 cells (1−2*10^5 cells/cm^2 area) are seeded on filter inserts (Costar transwell polycarbonate or PET filters, […] pore size) and cultured (DMEM) for 10 to 25 days. Compounds are dissolved in appropriate solvent (like DMSO, 1-20 mM stock solutions). Stock solutions are diluted with HTP-4 buffer (128.13 mM NaCl, 5.36 mM KCl, 1 mM MgSO4, 1.8 mM CaCl2, 4.17 mM NaHCO3, 1.19 mM Na2HPO4×7H2O, 0.41 mM NaH2PO4×H2O, 15 mM HEPES, 20 mM glucose, pH 7.2) to prepare the transport solutions (typically […] compound, final DMSO <=0.5%). The transport solution (TL) is applied to the apical or basolateral donor side for measuring A-B or B-A permeability (3 filter replicates), respectively. The receiver side contains HTP-4 buffer supplemented with 2% BSA. Samples are collected at the start and end of experiment from the donor and at various time intervals for up to 2 hours also from the receiver side for concentration measurement by LC-MS/MS or scintillation counting. Sampled receiver volumes are is replaced with fresh receiver solution.
The apparent permeability coefficients (PEAB and PEBA) and efflux ratios (PEBA/PEAB) of selected compounds in the Caco-2 drug transport assay described above are listed in Table 17.

[3] = Assay for Determination of Aqueous Solubility; assay type: physicochemical; conditions: McIlvaine buffer pH 6.8, 2.5% DMSO, 24 h
Method: Assay for Determination of Aqueous Solubility
The aqueous solubility of a compound is determined by comparing the amount dissolved in aqueous buffer (containing 2.5% DMSO) to the amount dissolved in an acetonitrile/water (1/1) solution. Starting from a 10 mM DMSO stock solution, aliquots are diluted with acetonitrile/water (1/1) and Mcllvaine buffer pH 6.8, respectively. After 24 h of shaking, the solutions or suspensions are filtered and analyzed by LC-UV. The amount dissolved in buffer is compared to the amount dissolved in the acetonitrile/water (1/1) solution. Solubility is measured from 0.001 to 0.125 mg/ml at a DMSO concentration of 2.5%. If more than 90% of the compound is dissolved in buffer, the value is marked with “>”.

[4] = Assay for the Determination of Metabolic Stability with Human Liver Microsomes; assay type: in vitro ADME; conditions: pooled human liver microsomes, 37° C., NADPH
Method: Assay for the Determination of Metabolic Stability with Human Liver Microsomes
The metabolic degradation of the test compound is assayed at 37° C. with pooled human liver microsomes. The final incubation volume of […] per time point contains TRIS buffer pH 7.6 (0.1 M), magnesium chloride (5 mM), microsomal protein (1 mg/ml) and the test compound at a final concentration of […]. Following a short preincubation period at 37° C., the reactions are initiated by addition of beta-nicotinamide adenine dinucleotide phosphate, reduced form (NADPH, 1 mM) and terminated by transfering an aliquot into acetonitrile after different time points. Additionally, the NADPH-independent degradation is monitored in incubations without NADPH, terminated at the last time point. The rol remaining test compound after NADPH independent incubation is reflected by the parameter c(control) (metabolic stability). The quenched incubations are pelleted by centrifugation (10′000 g, 5 min) An aliquot of the supernatant is assayed by LC-MS/MS for the amount of parent compound.
The half-life (t1/2 INVITRO) is determined by the slope of the semilogarithmic plot of the concentration-time profile. The intrinsic clearance (CL_[…]) is calculated by considering the amount of protein in the incubation: CL_[…][μl/min/mg protein]=(ln 2/(half-life [min]*protein content [mg/ml]))*1′000.
The half-life (t1/2 INVITRO) values of selected compounds in the metabolic stability assay described above are listed in Table 15.

[5] = Assay for the Determination of Metabolic Stability with Human Hepatocytes; assay type: in vitro ADME; conditions: scaled with well stirred model
Method: Assay for the Determination of Metabolic Stability with Human Hepatocytes
The metabolic degradation of the test compound is assayed in a human hepatocyte suspension. Human hepatocytes (typically cryopreserved) are incubated in an appropriate buffer system (e.g. Dulbecco's modified eagle medium plus 3.5 μg glucagon/500 mL, 2.5 mg insulin/500 mL and 3.75 mg/500 mL hydrocortison) containing 5% species serum. Following a (typically) […] preincubation in an incubator (37° C., 10% CO2), 5 μl of test compound solution (80 μM; from 2 mM stock solution in DMSO diluted 1:25 with medium) are added into 395 μl hepatocyte suspension (cell density in the range 0.25-5*10^6 cells/mL, typically 1*10^6 cells/mL; final concentration of test compound 1 μM, final DMSO concentration […]). The cells are incubated for six hours (incubator, orbital shaker) and samples (25 μl) are taken at 0, 0.5, 1, 2, 4 and 6 hours. Samples are transferred into acetonitrile and pelleted by centrifugation (5 min). The supernatant is transferred to a new 96-deepwell plate, evaporated under nitrogen and resuspended. The decline of parent compound is analyzed by LC-MS/MS.
The intrinsic clearance CL_[…] is calculated as follows: CL_[…]=Dose/AUC=(C0/CD)/(AUD+clast/k)*1′000/60 (C0: initial concentration in the incubation [μM], CD: cell density of vital cells [10^6 cells/mL], AUD: area under the data [μM*h], clast: concentration of last data point [μM], k: slope of the regression line for parent decline [h^−1])
The calculated in vitro hepatic intrinsic clearance can be scaled up to the intrinsic in vivo hepatic clearance and used to predict hepatic in vivo blood clearance (CL) by the use of a is liver model (well stirred model): CL_[…]_INVIVO [ml/min/kg]=(CL_[…] [μL/min/10^6 cells]* hepatocellularity[10^6 cells/g liver]*liver factor[g/kg bodyweight])/1′000 CL[ml/min/kg]=CL_[…]_INVIVO [ml/min/kg]*hepatic blood flow [ml/min/kg]/(CL_[…]_INVIVO [ml/min/kg]+hepatic blood flow [ml/min/kg]) Qh[%]=CL[ml/min/kg]/hepatic blood flow[ml/min/kg]) (Hepatocellularity, human: 120*10^6 cells/g liver; lver factor, human: 25.7 g/kg bodyweight; blood flow, human: 21 ml/(min*kg))
The predicted human hepatic in vivo blood clearance (CL) of selected compounds in the metabolic stability assay described above are listed in Table 16.

neutrophil elastase in human plasma, sequence (P08246 30-267): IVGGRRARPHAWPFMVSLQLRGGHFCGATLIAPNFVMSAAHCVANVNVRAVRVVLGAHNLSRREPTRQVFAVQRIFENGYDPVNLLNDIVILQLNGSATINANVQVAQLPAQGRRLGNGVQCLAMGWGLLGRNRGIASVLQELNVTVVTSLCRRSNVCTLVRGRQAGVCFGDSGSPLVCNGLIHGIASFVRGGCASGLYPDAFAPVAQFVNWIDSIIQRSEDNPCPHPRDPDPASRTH
Human neutrophil elastase, sequence (P08246 30-267): as above

| IC50 [1] [nM] | EC50 [2] [nM] | Efflux ratio (Caco-2 cell monolayers; Caco-2, PEBA/PEAB) | PEAB (Caco-2 cell monolayers; Caco-2, apical-to-basal, pH 7.2, 37° C.) [×10⁻⁶ cm/s] | PEBA (Caco-2 cell monolayers; Caco-2, basal-to-apical, pH 7.2, 37° C.) [×10⁻⁶ cm/s] | Aqueous solubility [3] [µg/mL] | t1/2 INVITRO [4] [h] | CL (predicted human hepatic in vivo blood clearance) [5] [mL/min/kg] | SMILES |
| --- | --- | --- | --- | --- | --- | --- | --- | --- |
| < 1 | 1 | 5.4 | 15 | 81 | 73 | – | – | CCNC(=O)N1C(=O)N(c2cccc(C(F)(F)F)c2)C2=C(C(=O)CCC2)C1c1ccc(C#N)cc1S(C)(=O)=O (stereo not shown) [Example 47.1] |
| 1.2 | 3 | – | – | – | 56 | >2.17 | 3 | CS(=O)(=O)c1cc(C#N)ccc1C1C2=C(CCCC2=O)N(c2cccc(C(F)(F)F)c2)C(=O)N1CCCO (stereo not shown) [Example 58.2] |
| < 1 | 1 | – | – | – | 66 | >2.17 | 0 | CS(=O)(=O)c1cc(C#N)ccc1[C@@H]1C2=C(CCCC2=O)N(c2cccc(C(F)(F)F)c2)C(=O)N1C(=O)NC1CCOCC1 [Example 75.16] |
